Experimental data taken from patent US11739100B2, “2,3-dihydro-1h-imidazo{1,2-a}pyrimidin-5-one and this 1,2,3,4-tetrahydropyrimido{1,2-a}pyrimidin-6-one derivatives comprising a substituted morpholine, preparation thereof and pharmaceutical use thereof” (SANOFI, priority 2012, dated 2023).

Each compound was assayed against T1, recombinant Vps34 (Homo sapiens, UniProt Q8NEB9) (assay: Phosphorylation of phosphatidylinositol (PI) by Vps34 in vitro, ADP detected by TR-FRET (HTRF Transcreener ADP)). Conditions: 10 μM ATP, 55 μg/ml PI, approximately 3 nM Vps34, 1 hour at ambient temperature; absolute IC50, mean of two independent experiments; read-out: IC50 activity range.
T1 construct: purchased Invitrogen PV5126
T1 sequence (Q8NEB9 whole entry): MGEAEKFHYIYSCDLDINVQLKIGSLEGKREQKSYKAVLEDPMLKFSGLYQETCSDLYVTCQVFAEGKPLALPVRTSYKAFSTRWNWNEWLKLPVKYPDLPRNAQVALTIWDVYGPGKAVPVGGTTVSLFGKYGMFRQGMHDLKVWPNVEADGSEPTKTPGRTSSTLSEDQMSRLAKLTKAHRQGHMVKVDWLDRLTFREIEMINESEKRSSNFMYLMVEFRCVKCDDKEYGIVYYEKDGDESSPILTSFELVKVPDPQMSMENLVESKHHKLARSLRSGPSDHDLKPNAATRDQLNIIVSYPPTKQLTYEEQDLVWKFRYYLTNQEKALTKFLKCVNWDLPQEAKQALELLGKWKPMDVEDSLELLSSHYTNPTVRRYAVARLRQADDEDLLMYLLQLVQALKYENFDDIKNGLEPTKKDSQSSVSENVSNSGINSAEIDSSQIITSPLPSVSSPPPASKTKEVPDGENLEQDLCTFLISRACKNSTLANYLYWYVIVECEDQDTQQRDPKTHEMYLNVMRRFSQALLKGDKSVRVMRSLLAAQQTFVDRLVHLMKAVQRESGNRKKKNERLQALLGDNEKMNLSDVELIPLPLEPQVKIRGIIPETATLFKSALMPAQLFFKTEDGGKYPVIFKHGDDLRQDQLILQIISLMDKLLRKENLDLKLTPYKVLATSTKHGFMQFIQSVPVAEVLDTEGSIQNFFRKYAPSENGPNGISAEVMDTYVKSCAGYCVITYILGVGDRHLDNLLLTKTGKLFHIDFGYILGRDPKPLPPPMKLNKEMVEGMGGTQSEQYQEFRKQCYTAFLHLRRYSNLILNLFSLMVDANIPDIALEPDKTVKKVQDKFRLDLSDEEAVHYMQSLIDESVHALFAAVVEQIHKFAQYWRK
Format: biochemical

Compound | IC50 [nM]
C[C@@H]1COCCN1c1cc(=O)n2c(n1)N(Cc1ncco1)[C@](C)(C(F)(F)F)CC2 [Example 239, (S)-8-Methyl-2-((R)-3-methylmorpholin-4-yl)-9-oxazol-2-ylmethyl-8-trifluoromethyl-6,7,8,9-tetrahydro-pyrimido[1,2-a]-pyrimidin-4-one] | < 10
Cc1nc(CN2c3nc(N4CCOC[C@H]4C)cc(=O)n3C[C@@]2(C)C(F)(F)F)no1 [Example 240, (S)-2-Methyl-7-((R)-3-methylmorpholin-4-yl)-1-(5-methyl-[1,2,4]oxadiazol-3-yl-methyl)-2-trifluoromethyl-2,3-dihydro-1H-imidazo[1,2-a]-pyrimidin-5-one] | < 10
C[C@@H]1COCCN1c1cc(=O)n2c(n1)N(CC(=O)C1CC1)[C@H](C(F)(F)F)CC2 [Example 241, (S)-9-(2-Cyclopropyl-2-oxoethyl)-2-((R)-3-methylmorpholin-4-yl)-8-trifluoromethyl-6,7,8,9-tetrahydro-pyrimido[1,2-a]-pyrimidin-4-one] | < 10
C[C@@H]1COCCN1c1cc(=O)n2c(n1)N(CC(=O)c1nccs1)[C@H](C(F)(F)F)CC2 [Example 242, (S)-2-((R)-3-Methyl-morpholin-4-yl)-9-(2-oxo-2-thiazol-2-yl-ethyl)-8-trifluoromethyl-6,7,8,9-tetrahydro-pyrimido[1,2-a]-pyrimidin-4-one] | < 10
C[C@@H]1COCCN1c1cc(=O)n2c(n1)N(CC(=O)OC1CCCC1)[C@H](C(F)(F)F)CC2 [Example 243, [(S)-8-((R)-3-Methyl-morpholin-4-yl)-6-oxo-2-trifluoromethyl-3,4-dihydro-2H,6H-pyrimido[1,2-a]-pyrimidin-1-yl]acetic acid cyclopentyl ester] | < 10
C[C@@H]1COCCN1c1cc(=O)n2c(n1)N(CC(=O)C1CCCC1)[C@H](C(F)(F)F)CC2 [Example 244, (S)-9-(2-Cyclopentyl-2-oxoethyl)-2-((R)-3-methylmorpholin-4-yl)-8-trifluoromethyl-6,7,8,9-tetrahydro-pyrimido[1,2-a]-pyrimidin-4-one] | < 10
C[C@@H]1COCCN1c1cc(=O)n2c(n1)N(CC(=O)C1CCOCC1)[C@H](C(F)(F)F)CC2 [Example 245, (S)-2-((R)-3-Methyl-morpholin-4-yl)-9-[2-oxo-2-(tetrahydro-pyran-4-yl)ethyl]-8-trifluoromethyl-6,7,8,9-tetrahydro-pyrimido[1,2-a]-pyrimidin-4-one] | < 10
CC(C)c1nc(CN2c3nc(N4CCOC[C@H]4C)c(F)c(=O)n3CC[C@H]2C(F)(F)F)no1 [Example 246, (S)-3-Fluoro-9-(5-isopropyl-[1,2,4]oxadiazol-3-yl-methyl)-2-((R)-3-methylmorpholin-4-yl)-8-trifluoromethyl-6,7,8,9-tetrahydro-pyrimido[1,2-a]-pyrimidin-4-one] | < 10
C[C@@H]1COCCN1c1nc2n(c(=O)c1F)CC[C@@H](C(F)(F)F)N2Cc1noc(C2CC2)n1 [Example 247, (S)-9-(5-Cyclopropyl-[1,2,4]oxadiazol-3-yl-methyl)-3-fluoro-2-((R)-3-methyl-morpholin-4-yl)-8-trifluoromethyl-6,7,8,9-tetrahydro-pyrimido[1,2-a]-pyrimidin-4-one] | < 10
CC(C)c1noc(CN2c3nc(N4CCOC[C@H]4C)c(F)c(=O)n3CC[C@H]2C(F)(F)F)n1 [Example 248, (S)-3-Fluoro-9-(3-isopropyl-[1,2,4]oxadiazol-5-yl-methyl)-2-((R)-3-methylmorpholin-4-yl)-8-trifluoromethyl-6,7,8,9-tetrahydro-pyrimido[1,2-a]-pyrimidin-4-one] | < 10
C[C@@H]1COCCN1c1nc2n(c(=O)c1F)CC[C@@H](C(F)(F)F)N2Cc1nc(C2CC2)no1 [Example 249, (S)-9-(3-Cyclopropyl-[1,2,4]oxadiazol-5-yl-methyl)-3-fluoro-2-((R)-3-methyl-morpholin-4-yl)-8-trifluoromethyl-6,7,8,9-tetrahydro-pyrimido[1,2-a]-pyrimidin-4-one] | < 10
C[C@@H]1COCCN1c1nc2n(c(=O)c1F)CC[C@@H](C(F)(F)F)N2Cc1nc(C(C)(C)C)no1 [Example 250, (S)-9-(3-tert-Butyl-[1,2,4]oxadiazol-5-yl-methyl)-3-fluoro-2-((R)-3-methyl-morpholin-4-yl)-8-trifluoromethyl-6,7,8,9-tetrahydro-pyrimido[1,2-a]-pyrimidin-4-one] | < 10
C[C@@H]1COCCN1c1nc2n(c(=O)c1F)CC[C@@H](C(F)(F)F)N2Cc1nc(C(F)(F)F)no1 [Example 251, (S)-3-Fluoro-2-((R)-3-methylmorpholin-4-yl)-8-trifluoromethyl-9-(3-trifluoromethyl-[1,2,4]oxadiazol-5-yl-methyl)-6,7,8,9-tetrahydro-pyrimido[1,2-a]-pyrimidin-4-one] | < 10
CC(C)C(=O)CN1c2nc(N3CCOC[C@H]3C)cc(=O)n2CC[C@@]1(C)C(F)(F)F [Example 252, (S)-8-Methyl-2-((R)-3-methylmorpholin-4-yl)-9-(3-methyl-2-oxo-butyl)-8-trifluoromethyl-6,7,8,9-tetrahydro-pyrimido[1,2-a]-pyrimidin-4-one] | < 10
C[C@@H]1COCCN1c1cc(=O)n2c(n1)N(CC(=O)C1(C)CCCC1)[C@H](C(F)(F)F)CC2 [Example 253, (S)-9-[2-(1-Methyl-cyclopentyl)-2-oxo-ethyl]-2-((R)-3-methyl-morpholin-4-yl)-8-trifluoromethyl-6,7,8,9-tetrahydro-pyrimido[1,2-a]-pyrimidin-4-one] | < 10
CC(C)OC(=O)CN1c2nc(N3CCOC[C@H]3C)cc(=O)n2CC[C@H]1C(F)(F)F [Example 254, [(S)-8-((R)-3-Methyl-morpholin-4-yl)-6-oxo-2-trifluoromethyl-3,4-dihydro-2H,6H-pyrimido[1,2-a]-pyrimidin-1-yl]acetic acid isopropyl ester] | < 10
C[C@@H]1COCCN1c1cc(=O)n2c(n1)N(Cc1ccnc(F)c1)[C@H](C(F)(F)F)CC2 [Example 257, (S)-9-(2-Fluoropyridin-4-ylmethyl)-2-((R)-3-methylmorpholin-4-yl)-8-trifluoromethyl-6,7,8,9-tetrahydro-pyrimido[1,2-a]-pyrimidin-4-one] | < 10
C[C@@H]1COCCN1c1cc(=O)n2c(n1)N(CC(=O)C1CCCCC1)[C@H](C(F)(F)F)CC2 [Example 258, (S)-9-(2-Cyclohexyl-2-oxoethyl)-2-((R)-3-methylmorpholin-4-yl)-8-trifluoromethyl-6,7,8,9-tetrahydro-pyrimido[1,2-a]-pyrimidin-4-one] | < 10

Further lines, results first:

IC50 [nM] | Compound
< 10 | C[C@@H]1COCCN1c1cc(=O)n2c(n1)N(Cc1ccnnc1)[C@H](C(F)(F)F)CC2 [Example 259, (S)-2-((R)-3-methyl-morpholin-4-yl)-9-pyridazin-4-ylmethyl-8-trifluoromethyl-6,7,8,9-tetrahydro-pyrimido[1,2-a]-pyrimidin-4-one]
< 10 | C[C@@H]1COCCN1c1cc(=O)n2c(n1)N(CC(=O)OC(C)(C)C)[C@H](C(F)(F)F)CC2 [Example 260, [(S)-8-((R)-3-Methyl-morpholin-4-yl)-6-oxo-2-trifluoromethyl-3,4-dihydro-2H,6H-pyrimido[1,2-a]-pyrimidin-1-yl]acetic acid tert-butyl ester]
10 to 100 | C[C@@H]1COCCN1c1cc(=O)n2c(n1)N(CC(=O)C1CCCN1C(=O)OC(C)(C)C)[C@H](C(F)(F)F)CC2 (stereo partly drawn) [Example 261, 2-{2-[(S)-8-((R)-3-Methylmorpholin-4-yl)-6-oxo-2-trifluoromethyl-3,4-dihydro-2H,6H-pyrimido[1,2-a]-pyrimidin-1-yl]acetyl}-pyrrolidine-1-carboxylic acid tert-butyl ester]
< 10 | COC(=O)CN1c2nc(N3CCOC[C@H]3C)cc(=O)n2CC[C@H]1C(F)(F)F [Example 262, [(S)-8-((R)-3-Methyl-morpholin-4-yl)-6-oxo-2-trifluoromethyl-3,4-dihydro-2H,6H-pyrimido[1,2-a]-pyrimidin-1-yl]acetic acid methyl ester]
> 100 | C[C@@H]1COCCN1c1cc(=O)n2c(n1)N(CC(N)=O)[C@H](C(F)(F)F)CC2 [Example 263, 2-[(S)-8-((R)-3-Methyl-morpholin-4-yl)-6-oxo-2-trifluoromethyl-3,4-dihydro-2H,6H-pyrimido[1,2-a]-pyrimidin-1-yl]-acetamide]
< 10 | C[C@@H]1COCCN1c1cc(=O)n2c(n1)N(Cc1nnc[nH]1)[C@H](C(F)(F)F)CC2 [Example 264, (S)-2-((R)-3-Methyl-morpholin-4-yl)-9-(4H-[1,2,4]triazol-3-yl-methyl)-8-trifluoromethyl-6,7,8,9-tetrahydro-pyrimido[1,2-a]-pyrimidin-4-one]
10 to 100 | C[C@@H]1COCCN1c1cc(=O)n2c(n1)N(CC(=O)C1CCNCC1)[C@H](C(F)(F)F)CC2 [Example 265, (S)-2-((R)-3-Methyl-morpholin-4-yl)-9-(2-oxo-2-piperidin-4-yl-ethyl)-8-trifluoromethyl-6,7,8,9-tetrahydro-pyrimido[1,2-a]-pyrimidin-4-one]
< 10 | CC(C)=CCN1c2nc(N3CCOC[C@H]3C)cc(=O)n2CC[C@H]1C(F)(F)F [Example 266, (S)-9-(3-Methyl-but-2-enyl)-2-((R)-3-methyl-morpholin-4-yl)-8-trifluoromethyl-6,7,8,9-tetrahydro-pyrimido[1,2-a]-pyrimidin-4-one]
< 10 | C[C@@H]1COCCN1c1cc(=O)n2c(n1)N(CCC(C)(C)F)[C@H](C(F)(F)F)CC2 [Example 267, (S)-9-(3-Fluoro-3-methylbutyl)-2-((R)-3-methylmorpholin-4-yl)-8-trifluoromethyl-6,7,8,9-tetrahydro-pyrimido[1,2-a]-pyrimidin-4-one]
> 100 | Cc1nocc1C(=O)CN1c2nc(N3CCOC[C@H]3C)cc(=O)n2CC[C@H]1C(F)(F)F [Example 268, (S)-9-[2-(3-Methyl-isoxazol-4-yl)-2-oxo-ethyl]-2-((R)-3-methyl-morpholin-4-yl)-8-trifluoromethyl-6,7,8,9-tetrahydro-pyrimido[1,2-a]-pyrimidin-4-one]
